Experimental data: patent US20060140863A1, “Production of a dye agent for colouring cells in the human or animal body” (Fluoron GMBH, priority 2002, published 2006)
Like-named read-outs stand apart in the source and are kept apart here.

Legend:
[1] = Cahen 1964 and BLURHEX product information; cited from earlier work
[2] = known from Solomon et al 1989 and Veckener et al 2002 (rabbit eyes); cited from earlier work
[3] = Cytotoxicity, general statement; format: cell-based; details: biocompatible solution according to the invention, in comparison with trypan blue
From the text: Trypan blue is a cytotoxic substance, as is known for example from Solomon K D et al: Protective effect of the anterior lens capsule during extra capsular cataract extraction, OPHTHALMOLOGY, Vol 96, No 5, May 1989, 591-597, and Veckener M et al: Ocular toxicity study of trypan blue injected into the vitreous cavity of rabbit eyes, Graefe's Arch. Clin. Ex. Ophthalmol. (2002) 239:698-704. When using trypan blue therefore complete flushing out in particular of the region of the eye in which the trypan blue was used as a dye agent is required immediately after the cataract operation in order to prevent it from remaining in the body or in the eye for a prolonged period of time.

mouse cells L 929 = test: Cytotoxicity by protein content of treated cell cultures vs untreated controls (growth inhibition); format: cell-based; details: L 929 cells, differing levels of concentration, 68 to 72 hours in an incubator, protein content vs untreated control
From the text: (§1) The vitality of the cells and a deduced cytotoxicity is quantitatively determined by determining the protein content of the treated cell cultures in comparison with untreated control cultures. The protein content is ascertained by a colorimetric procedure with a standard process.
(§2) It is found in this respect that cytotoxicity of a significant level corresponding to growth inhibition of more than 30% is not present.

ARPE-19-cells = test: as above; format: cell-based; details: differing levels of concentration, 68 to 72 hours in an incubator, protein content vs untreated control
From the text: as §1, §2

| Compound | teratogenic or mutagenic action [1] | cytotoxicity [2] | cytotoxicity [3] | growth inhibition (cytotoxicity of a significant level = more than 30%) (mouse cells L 929) [%] | growth inhibition (cytotoxicity of a significant level = more than 30%) (ARPE-19-cells) [%] |
| --- | --- | --- | --- | --- | --- |
| Cc1cc(-c2ccc(/N=N/c3c(S(=O)(=O)O)cc4cc(S(=O)(=O)O)cc(N)c4c3O)c(C)c2)ccc1/N=N/c1c(S(=O)(=O)O)cc2cc(S(=O)(=O)O)cc(N)c2c1O [Trypan blue, trypan blue] | teratogenic or mutagenic action | cytotoxic |  |  |  |
| CCN(CC)c1ccc(C(=C2C=CC(=[N+](CC)CC)C=C2)c2cc(O)c(S(=O)(=O)[O-])cc2S(=O)(=O)[O-])cc1.CCN(CC)c1ccc(C(=C2C=CC(=[N+](CC)CC)C=C2)c2cc(O)c(S(=O)(=O)[O-])cc2S(=O)(=O)[O-])cc1.[Ca+2] [patent blue V] |  |  | does not have any cytotoxicity | ≤ 30 | ≤ 30 |
| brilliant blue R |  |  | does not have any cytotoxicity |  |  |
